Experimental data as given in patent US9120791B2, “Indolizine compounds, a process for their preparation and pharmaceutical compositions containing them” (LES LABORATOIRES SERVIER, priority 2012, dated 2015).
Counter-ions that a name gives are not always drawn.

Experiments:
Bcl-2 protein = Bcl-2 protein (Homo sapiens (Human), UniProt P10415); experiment: Inhibition of Bcl-2 by the fluorescence polarisation technique; format: binding; conditions: fluorescence polarisation test; concentration that inhibits fluorescence polarisation by 50%; read-out: IC50 (nM) Bcl-2 FP
Description: The fluorescence polarisation tests were carried out on microplates (384 wells). […] After incubation for 2 hours, the fluorescence polarisation is measured.

[1] = test system: RS4;11 leukaemia tumour line; experiment: In vitro cytotoxicity (Microculture Tetrazolium Assay, 48 hours); format: cell-based; conditions: Homo sapiens, RS4;11 cells, 48 hours exposure, MTT, concentration that inhibits cell viability by 50%, read-out: IC50 (nM) MTT RS4
Description: The cytotoxicity studies were carried out on the RS4;11 leukaemia tumour line.
The cells are distributed onto microplates and exposed to the test compounds for 48 hours.

Chain of Bcl-2 protein (P10415 whole entry): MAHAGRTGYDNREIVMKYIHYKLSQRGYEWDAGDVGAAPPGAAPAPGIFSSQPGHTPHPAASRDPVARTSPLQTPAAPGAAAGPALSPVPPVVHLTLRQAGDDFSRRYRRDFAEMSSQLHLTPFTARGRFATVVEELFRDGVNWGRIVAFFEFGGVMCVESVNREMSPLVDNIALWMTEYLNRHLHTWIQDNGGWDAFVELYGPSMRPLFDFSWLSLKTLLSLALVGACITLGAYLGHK

SMILES	IC50 (Bcl-2 protein) [nM]	IC50 [1] [nM]
O=C(c1cc(-c2cc(Cl)ccc2C(=O)N2Cc3ccccc3C[C@H]2CN2CCOCC2)n2c1CCCC2)N(c1ccc(O)cc1)c1ccccc1F [Example 115, 3-(5-Chloro-2-{[(3S)-3-(morpholin-4-ylmethyl)-3,4-dihydroisoquinolin-2(1H)-yl]carbonyl}phenyl)-N-(2-fluorophenyl)-N-(4-hydroxyphenyl)-5,6,7,8-tetrahydroindolizine-1-carboxamide hydrochloride]	8	58.1
O=C(c1cc(-c2cc(Cl)ccc2C(=O)N2Cc3ccccc3C[C@H]2CN2CCOCC2)n2c1CCCC2)N(c1ccc(O)cc1)c1cccc(F)c1 [Example 116, 3-(5-Chloro-2-{[(3S)-3-(morpholin-4-ylmethyl)-3,4-dihydroisoquinolin-2(1H)-yl]carbonyl}phenyl)-N-(3-fluorophenyl)-N-(4-hydroxyphenyl)-5,6,7,8-tetrahydroindolizine-1-carboxamide hydrochloride]	10	43.6
O=C(c1cc(-c2cc(Cl)ccc2C(=O)N2Cc3ccccc3C[C@H]2CN2CCOCC2)n2c1CCCC2)N(c1ccc(O)cc1)c1ccc(F)cc1F [Example 117, 3-(5-Chloro-2-{[(3S)-3-(morpholin-4-ylmethyl)-3,4-dihydroisoquinolin-2(1H)-yl]carbonyl}phenyl)-N-(2,4-difluorophenyl)-N-(4-hydroxyphenyl)-5,6,7,8-tetrahydroindolizine-1-carboxamide hydrochloride]	15	194
O=C(c1cc(-c2cc(Cl)ccc2C(=O)N2Cc3ccccc3C[C@H]2CN2CCOCC2)n2c1CCCC2)N(c1ccc(O)cc1)c1ccc(F)c(F)c1 [Example 118, 3-(5-Chloro-2-{[(3S)-3-(morpholin-4-ylmethyl)-3,4-dihydroisoquinolin-2(1H)-yl]carbonyl}phenyl)-N-(3,4-difluorophenyl)-N-(4-hydroxyphenyl)-5,6,7,8-tetrahydroindolizine-1-carboxamide hydrochloride]	15	71
N#Cc1cccc(N(C(=O)c2cc(-c3cc(Cl)ccc3C(=O)N3Cc4ccccc4C[C@H]3CN3CCOCC3)n3c2CCCC3)c2ccc(O)cc2)c1 [Example 119, 3-(5-Chloro-2-{[(3S)-3-(morpholin-4-ylmethyl)-3,4-dihydroisoquinolin-2(1H)-yl]carbonyl}phenyl)-N-(3-cyanophenyl)-N-(4-hydroxyphenyl)-5,6,7,8-tetrahydroindolizine-1-carboxamide hydrochloride]	9	31.6
N#Cc1ccccc1N(C(=O)c1cc(-c2cc(Cl)ccc2C(=O)N2Cc3ccccc3C[C@H]2CN2CCOCC2)n2c1CCCC2)c1ccc(O)cc1 [Example 134, 3-(5-Chloro-2-{[(3S)-3-(morpholin-4-ylmethyl)-3,4-dihydroisoquinolin-2(1H)-yl]carbonyl}phenyl)-N-(2-cyanophenyl)-N-(4-hydroxyphenyl)-5,6,7,8-tetrahydroindolizine-1-carboxamide hydrochloride]	37	305

The remaining compounds from weak to strong by IC50 (Bcl-2 protein), led by results:

IC50 (Bcl-2 protein) [nM]	SMILES	IC50 [1] [nM]
38	O=C(c1cc(-c2cc(Cl)ccc2C(=O)N2Cc3ccccc3C[C@H]2CN2CCOCC2)n2c1CCCC2)N(c1ccc(O)cc1)c1cc(F)cc(F)c1 [Example 125, 3-(5-Chloro-2-{[(3S)-3-(morpholin-4-ylmethyl)-3,4-dihydroisoquinolin-2(1H)-yl]carbonyl}phenyl)-N-(3,5-difluorophenyl)-N-(4-hydroxyphenyl)-5,6,7,8-tetrahydroindolizine-1-carboxamide hydrochloride]	81.8
30	O=C(c1cc(-c2cc(Cl)ccc2C(=O)N2Cc3ccccc3C[C@H]2CN2CCOCC2)n2c1CCCC2)N(c1ccc(O)cc1)c1cccc(Cl)c1 [Example 131, 3-(5-Chloro-2-{[(3S)-3-(morpholin-4-ylmethyl)-3,4-dihydroisoquinolin-2(1H)-yl]carbonyl}phenyl)-N-(3-chlorophenyl)-N-(4-hydroxyphenyl)-5,6,7,8-tetrahydroindolizine-1-carboxamide hydrochloride]	88.4
28	COc1cccc(N(C(=O)c2cc(-c3cc(Cl)ccc3C(=O)N3Cc4ccccc4C[C@H]3CN3CCOCC3)n3c2CCCC3)c2ccc(O)cc2)c1 [Example 124, 3-(5-Chloro-2-{[(3S)-3-(morpholin-4-ylmethyl)-3,4-dihydroisoquinolin-2(1H)-yl]carbonyl}phenyl)-N-(4-hydroxyphenyl)-N-(3-methoxyphenyl)-5,6,7,8-tetrahydroindolizine-1-carboxamide hydrochloride]	101
26	Cc1cccc(N(C(=O)c2cc(-c3cc(Cl)ccc3C(=O)N3Cc4ccccc4C[C@H]3CN3CCOCC3)n3c2CCCC3)c2ccc(O)cc2)c1 [Example 126, 3-(5-Chloro-2-{[(3S)-3-(morpholin-4-ylmethyl)-3,4-dihydroisoquinolin-2(1H)-yl]carbonyl}phenyl)-N-(4-hydroxyphenyl)-N-(3-methylphenyl)-5,6,7,8-tetrahydroindolizine-1-carboxamide hydrochloride]	115
26	O=C(c1cc(-c2cc3c(cc2C(=O)N2Cc4ccccc4C[C@H]2CN2CCN(CC(F)(F)F)CC2)OCO3)n2c1CCCC2)N(c1ccccc1)c1ccc(O)cc1 [Example 127, N-(4-Hydroxyphenyl)-N-phenyl-3-(6-{[(3S)-3-{[4-(2,2,2-trifluoroethyl)-piperazin-1-yl]methyl}-3,4-dihydroisoquinolin-2(1H)-yl]carbonyl}-1,3-benzodioxol-5-yl)-5,6,7,8-tetrahydroindolizine-1-carboxamide hydrochloride]	129
22	CS(=O)(=O)N1CCN(C[C@@H]2Cc3ccccc3CN2C(=O)c2cc3c(cc2-c2cc(C(=O)N(c4ccccc4)c4ccc(O)cc4)c4n2CCCC4)OCO3)CC1 [Example 123, N-(4-Hydroxyphenyl)-3-(6-{[(3S)-3-{[4-(methylsulphonyl)piperazin-1-yl]methyl}-3,4-dihydroisoquinolin-2(1H)-yl]carbonyl}-1,3-benzodioxol-5-yl)-N-phenyl-5,6,7,8-tetrahydroindolizine-1-carboxamide hydrochloride]	92.1
10	CN1CCN(C[C@@H]2Cc3ccccc3CN2C(=O)c2cc3c(cc2-c2cc(C(=O)N(c4ccccc4)c4ccc(O)cc4)c4n2CCCC4)OCO3)CC1=O [Example 128, N-(4-Hydroxyphenyl)-3-(6-{[(3S)-3-[(4-methyl-3-oxopiperazin-1-yl)methyl]-3,4-dihydroisoquinolin-2(1H)-yl]carbonyl}-1,3-benzodioxol-5-yl)-N-phenyl-5,6,7,8-tetrahydroindolizine-1-carboxamide hydrochloride]	63.4
9	N#Cc1ccc(N(C(=O)c2cc(-c3cc(Cl)ccc3C(=O)N3Cc4ccccc4C[C@H]3CN3CCOCC3)n3c2CCCC3)c2ccc(O)cc2)cc1 [Example 129, 3-(5-Chloro-2-{[(3S)-3-(morpholin-4-ylmethyl)-3,4-dihydroisoquinolin-2(1H)-yl]carbonyl}phenyl)-N-(4-cyanophenyl)-N-(4-hydroxyphenyl)-5,6,7,8-tetrahydroindolizine-1-carboxamide hydrochloride]	46.7
